Assay results from ChEMBL document CHEMBL2069183, “Inhibitor scaffold for the histone lysine demethylase KDM4C (JMJD2C)” (Bioorg Med Chem Lett, 2012).
The source made the active and inactive calls. The rule behind the calls is not given here.

Experiments:
[1] = biological target: Lysine-specific demethylase 6A (Homo sapiens, UniProt O15550); assay: Inhibition of KDM6A
[2] = biological target: T1, Lysine-specific demethylase 4C (Homo sapiens, UniProt Q9H3R0); assay: Inhibition of KDM4C catalytic core-mediated demethylation of ARK(Me)3STGGK after 30 mins by FDH-coupled assay
T1 sequence (Q9H3R0 whole entry): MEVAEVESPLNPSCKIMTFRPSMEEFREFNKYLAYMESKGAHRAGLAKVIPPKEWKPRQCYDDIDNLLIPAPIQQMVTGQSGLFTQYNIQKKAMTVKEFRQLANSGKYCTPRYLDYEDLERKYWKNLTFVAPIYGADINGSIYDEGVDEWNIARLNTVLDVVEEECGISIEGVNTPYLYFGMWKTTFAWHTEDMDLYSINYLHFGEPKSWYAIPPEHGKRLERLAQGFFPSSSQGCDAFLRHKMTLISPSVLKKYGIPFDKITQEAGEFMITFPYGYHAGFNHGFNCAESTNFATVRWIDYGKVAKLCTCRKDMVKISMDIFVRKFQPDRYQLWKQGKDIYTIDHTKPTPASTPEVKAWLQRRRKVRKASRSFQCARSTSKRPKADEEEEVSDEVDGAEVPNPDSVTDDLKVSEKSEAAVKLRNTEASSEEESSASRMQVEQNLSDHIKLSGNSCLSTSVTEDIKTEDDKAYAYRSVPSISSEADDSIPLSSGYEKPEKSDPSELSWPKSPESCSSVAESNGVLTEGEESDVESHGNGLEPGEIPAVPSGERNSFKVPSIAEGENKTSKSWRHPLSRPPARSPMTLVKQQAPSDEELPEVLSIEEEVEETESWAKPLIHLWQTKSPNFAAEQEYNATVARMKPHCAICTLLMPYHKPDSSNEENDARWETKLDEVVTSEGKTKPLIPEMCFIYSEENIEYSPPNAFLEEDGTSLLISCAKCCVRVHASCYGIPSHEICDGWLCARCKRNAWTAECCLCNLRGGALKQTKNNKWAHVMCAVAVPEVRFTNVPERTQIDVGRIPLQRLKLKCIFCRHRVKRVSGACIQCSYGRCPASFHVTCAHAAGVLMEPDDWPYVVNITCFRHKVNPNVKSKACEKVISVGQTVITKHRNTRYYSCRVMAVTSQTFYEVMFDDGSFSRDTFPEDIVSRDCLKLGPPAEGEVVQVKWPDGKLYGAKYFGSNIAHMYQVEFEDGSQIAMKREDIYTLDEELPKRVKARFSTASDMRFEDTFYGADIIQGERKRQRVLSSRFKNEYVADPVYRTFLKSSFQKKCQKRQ

[3] = biological target: Alcohol dehydrogenase class-3 (Homo sapiens) (UniProt P11766); assay: Inhibition of FDH using formalin as substrate at 0.01 to 500 uM after 30 mins by fluorimetry
[4] = biological target: T2, Lysine-specific demethylase 4C (Homo sapiens) (UniProt Q9H3R0); conditions: 500 uM
T2 sequence (whole entry): T1 sequence (Q9H3R0 whole entry)
Description: Inhibition of KDM4C catalytic core-mediated demethylation of ARK(Me)3STGGK at 500 uM after 30 mins by FDH-coupled assay in presence of increasing concentration of Fe(II) ions

Lysine-specific demethylase 6A, sequence (O15550 whole entry): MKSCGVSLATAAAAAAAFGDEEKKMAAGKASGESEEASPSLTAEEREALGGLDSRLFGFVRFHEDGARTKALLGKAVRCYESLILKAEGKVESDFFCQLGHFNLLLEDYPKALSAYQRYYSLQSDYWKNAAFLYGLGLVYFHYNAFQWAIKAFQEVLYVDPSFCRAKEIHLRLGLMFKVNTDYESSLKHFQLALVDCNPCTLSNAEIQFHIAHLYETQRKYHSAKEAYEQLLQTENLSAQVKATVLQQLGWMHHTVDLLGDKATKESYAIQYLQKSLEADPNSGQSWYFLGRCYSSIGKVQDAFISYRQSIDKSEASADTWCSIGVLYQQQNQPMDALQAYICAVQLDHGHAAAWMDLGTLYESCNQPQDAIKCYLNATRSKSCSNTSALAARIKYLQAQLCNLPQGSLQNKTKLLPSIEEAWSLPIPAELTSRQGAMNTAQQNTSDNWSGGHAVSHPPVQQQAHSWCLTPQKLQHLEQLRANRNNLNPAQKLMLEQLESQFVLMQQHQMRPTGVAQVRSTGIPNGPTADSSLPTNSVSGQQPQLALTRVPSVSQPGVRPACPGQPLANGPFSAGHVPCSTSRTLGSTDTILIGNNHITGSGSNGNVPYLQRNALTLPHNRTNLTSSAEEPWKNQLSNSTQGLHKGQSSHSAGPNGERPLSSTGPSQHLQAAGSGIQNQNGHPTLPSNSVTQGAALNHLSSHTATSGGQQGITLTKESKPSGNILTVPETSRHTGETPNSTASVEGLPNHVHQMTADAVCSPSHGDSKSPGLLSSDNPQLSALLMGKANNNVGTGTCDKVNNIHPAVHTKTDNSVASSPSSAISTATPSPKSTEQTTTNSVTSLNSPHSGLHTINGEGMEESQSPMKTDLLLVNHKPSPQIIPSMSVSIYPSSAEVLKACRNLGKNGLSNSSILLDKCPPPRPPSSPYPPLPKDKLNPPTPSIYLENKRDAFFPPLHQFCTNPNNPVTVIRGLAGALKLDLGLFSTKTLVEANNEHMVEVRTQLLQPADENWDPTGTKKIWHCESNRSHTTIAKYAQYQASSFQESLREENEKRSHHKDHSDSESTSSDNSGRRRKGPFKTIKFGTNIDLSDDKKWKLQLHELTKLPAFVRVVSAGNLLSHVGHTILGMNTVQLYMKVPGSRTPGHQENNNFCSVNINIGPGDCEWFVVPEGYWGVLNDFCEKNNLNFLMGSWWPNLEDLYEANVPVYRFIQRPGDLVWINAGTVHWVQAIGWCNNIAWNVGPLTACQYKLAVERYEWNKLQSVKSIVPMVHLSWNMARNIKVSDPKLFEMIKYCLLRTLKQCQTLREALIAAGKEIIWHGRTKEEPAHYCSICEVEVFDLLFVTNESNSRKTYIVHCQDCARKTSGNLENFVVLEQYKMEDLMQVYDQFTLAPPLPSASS
Alcohol dehydrogenase class-3 (Homo sapiens), sequence (P11766 2-374 limits assumed): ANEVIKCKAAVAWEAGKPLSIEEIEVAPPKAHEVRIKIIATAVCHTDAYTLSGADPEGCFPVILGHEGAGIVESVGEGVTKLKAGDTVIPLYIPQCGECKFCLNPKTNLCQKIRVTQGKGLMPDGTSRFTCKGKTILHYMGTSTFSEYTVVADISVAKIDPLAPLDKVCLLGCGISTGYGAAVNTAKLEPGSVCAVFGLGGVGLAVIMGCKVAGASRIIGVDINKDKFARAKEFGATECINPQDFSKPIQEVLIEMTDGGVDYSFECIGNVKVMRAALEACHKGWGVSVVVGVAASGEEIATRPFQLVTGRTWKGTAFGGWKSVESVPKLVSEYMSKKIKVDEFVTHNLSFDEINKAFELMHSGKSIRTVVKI

Compound `O=C(O)c1ccnc(C(=O)O)c1` has an IC50 [1] of 177 µM.
Compound `[O-][n+]1nn(-c2ccccc2)c(Br)c1Cl` has an IC50 [2] of over 200 µM and a Ki [2] of over 200 µM.
In the case of `OB(O)c1cc[nH]n1`, the IC50 [2] is reported as over 200 µM and the Ki [2] is reported as over 200 µM.
`O=C1CN=C(c2ccccc2)c2cc([N+](=O)[O-])ccc2N1` [NITRAZEPAM] gave an IC50 [2] of over 200 µM and a Ki [2] of over 200 µM.
`O=C(O)c1cnnn1-c1ccccc1` gave an IC50 [2] of over 200 µM and a Ki [2] of over 200 µM.
With `C[n+]1ccnn1-c1ccccc1` the IC50 [2] was over 200 µM and the Ki [2] was over 200 µM.
`[O-][n+]1nn(-c2ccccc2)c(Cl)c1Cl` gave an IC50 [2] of over 200 µM and a Ki [2] of over 200 µM.
Work on `Cn1cc(N)nn1` yielded an IC50 [2] of over 200 µM and a Ki [2] of over 200 µM.
`[O-][n+]1nn(Cc2ccccc2)c(Br)c1Br` was tested, and the IC50 [2] was over 200 µM and the Ki [2] was over 200 µM.
With `CCOC(=O)c1nnn(-c2ccccc2)c1NC(C)=O` the IC50 [2] was over 200 µM and the Ki [2] was over 200 µM.
For `COC(=O)c1n[nH]c(C(=O)OC)c1O`, the IC50 [2] was 30 µM, the Ki [2] was 51 µM and the inhibition [3] was “inactive”. For the same compound, the inhibition [4] was “inactive”.
`CCOC(=O)c1[nH]nnc1C` showed an IC50 [2] of over 200 µM and a Ki [2] of over 200 µM.
`Brc1cn(Cc2ccccc2)nn1` gave an IC50 [2] of over 200 µM and a Ki [2] of over 200 µM.
`[O-][n+]1nn(-c2ccccc2)c(CO)c1Cl` showed an IC50 [2] of over 200 µM and a Ki [2] of over 200 µM.
Compound `O=[N+]([O-])c1cnn(-c2ccccc2)c1` has an IC50 [2] of over 200 µM and a Ki [2] of over 200 µM.
`CN1CN(Cc2ccccc2)C=C1S` was tested, and the IC50 [2] was over 200 µM and the Ki [2] was over 200 µM.
`[O-][n+]1nn(-c2ccccc2)c(Br)c1Br` was tested, and the IC50 [2] was over 200 µM and the Ki [2] was over 200 µM.
With `O=C(O)c1cc[nH]n1` the IC50 [2] was over 200 µM and the Ki [2] was over 200 µM.
For `Cc1ccc(Cn2cc(C(=O)O)nn2)cc1`, the IC50 [2] was over 200 µM and the Ki [2] was over 200 µM.
In the case of `Cc1nn(C)n(C)c1=S`, the IC50 [2] is reported as over 200 µM and the Ki [2] is reported as over 200 µM.
With `COC(=O)c1n[nH]n(Cc2ccccc2)c1=O` the IC50 [2] was over 200 µM and the Ki [2] was over 200 µM.
With `Cc1c(O)c(C(=O)c2ccccc2)nn1-c1ccccc1` the IC50 [2] was over 200 µM and the Ki [2] was over 200 µM.
`[O-][n+]1nn(Cc2ccccc2)c(C(=S)Nc2ccccc2)c1Cl` showed an IC50 [2] of over 200 µM and a Ki [2] of over 200 µM.
`Cn1cc(Cl)nc1Cl` showed an IC50 [2] of over 200 µM and a Ki [2] of over 200 µM.
Compound `CNC(=O)c1nnn(C)c1O` has an IC50 [2] of over 200 µM and a Ki [2] of over 200 µM.
With `[O-][n+]1nn(Cc2ccccc2)cc1Cl` the IC50 [2] was over 200 µM and the Ki [2] was over 200 µM.
